In ChEMBL document CHEMBL4507277:

Assays:
[1] = molecular target: Delta-type opioid receptor (Homo sapiens) (UniProt P41143); conditions: Compound concentration 10.0 uM
[2] = molecular target: Ephrin type-B receptor 4 (Homo sapiens) (UniProt P54760); conditions: Compound concentration 1000.0 nM
[3] = molecular target: Ribosomal protein S6 kinase alpha-1 (Homo sapiens) (UniProt Q15418); conditions: Compound concentration 1000.0 nM
[4] = molecular target: NUAK family SNF1-like kinase 2 (Homo sapiens) (UniProt Q9H093); conditions: Compound concentration 1000.0 nM
[5] = system: Mast/stem cell growth factor receptor Kit (Homo sapiens), P10721 [V559D,V654A]; conditions: Compound concentration 1000.0 nM
[6] = molecular target: Protein kinase C theta type (Homo sapiens) (UniProt Q04759); conditions: Compound concentration 1000.0 nM
[7] = molecular target: Serine/threonine-protein kinase Chk1 (Homo sapiens) (UniProt O14757); conditions: Compound concentration 1000.0 nM
[8] = molecular target: Protein kinase C epsilon type (Homo sapiens) (UniProt Q02156); conditions: Compound concentration 1000.0 nM
[9] = molecular target: Dual specificity mitogen-activated protein kinase kinase 6 (Homo sapiens) (UniProt P52564); conditions: Compound concentration 1000.0 nM
[10] = molecular target: Serine/threonine-protein kinase DCLK3 (Homo sapiens) (UniProt Q9C098); conditions: Compound concentration 1000.0 nM
[11] = molecular target: Calcium/calmodulin-dependent protein kinase kinase 1 (Homo sapiens) (UniProt Q8N5S9); conditions: Compound concentration 1000.0 nM
[12] = system: Serine/threonine-protein kinase B-raf (Homo sapiens), P15056 [V600E]; conditions: Compound concentration 1000.0 nM
[13] = molecular target: Activin receptor type-1B (Homo sapiens) (UniProt P36896); conditions: Compound concentration 1000.0 nM
[14] = molecular target: Serine/threonine-protein kinase TNNI3K (Homo sapiens) (UniProt Q59H18); conditions: Compound concentration 1000.0 nM
[15] = molecular target: Serine/threonine-protein kinase Nek11 (Homo sapiens) (UniProt Q8NG66); conditions: Compound concentration 1000.0 nM
[16] = molecular target: Phosphatidylinositol 5-phosphate 4-kinase type-2 gamma (Homo sapiens) (UniProt Q8TBX8); conditions: Compound concentration 1000.0 nM
[17] = molecular target: Cyclin-dependent kinase 16 (Homo sapiens) (UniProt Q00536); conditions: Compound concentration 1000.0 nM
[18] = molecular target: Ephrin type-B receptor 6 (Homo sapiens) (UniProt O15197); conditions: Compound concentration 1000.0 nM
[19] = molecular target: Insulin-like growth factor 1 receptor (Homo sapiens) (UniProt P08069); conditions: Compound concentration 1000.0 nM
[20] = molecular target: Ribosomal protein S6 kinase alpha-4 (Homo sapiens) (UniProt O75676); conditions: Compound concentration 1000.0 nM
[21] = molecular target: Mitogen-activated protein kinase kinase kinase 12 (Homo sapiens) (UniProt Q12852); conditions: Compound concentration 1000.0 nM
[22] = system: Mast/stem cell growth factor receptor Kit (Homo sapiens), P10721 [V559D]; conditions: Compound concentration 1000.0 nM
[23] = molecular target: Tyrosine-protein kinase Fyn (Homo sapiens) (UniProt P06241); conditions: Compound concentration 1000.0 nM
[24] = system: Epidermal growth factor receptor (Homo sapiens), P00533 [UNDEFINED MUTATION]; conditions: Compound concentration 1000.0 nM
[25] = molecular target: Calcium/calmodulin-dependent protein kinase type II subunit beta (Homo sapiens) (UniProt Q13554); conditions: Compound concentration 1000.0 nM
[26] = molecular target: Serine/threonine-protein kinase Nek9 (Homo sapiens) (UniProt Q8TD19); conditions: Compound concentration 1000.0 nM
[27] = molecular target: Dual specificity mitogen-activated protein kinase kinase 3 (Homo sapiens) (UniProt P46734); conditions: Compound concentration 1000.0 nM
[28] = molecular target: Vascular endothelial growth factor receptor 1 (Homo sapiens) (UniProt P17948); conditions: Compound concentration 1000.0 nM
[29] = molecular target: cGMP-dependent protein kinase 2 (Homo sapiens) (UniProt Q13237); conditions: Compound concentration 1000.0 nM
[30] = molecular target: Cyclin-dependent kinase-like 5 (Homo sapiens) (UniProt O76039); conditions: Compound concentration 1000.0 nM
[31] = molecular target: Fibroblast growth factor receptor 3 (Homo sapiens) (UniProt P22607); conditions: Compound concentration 1000.0 nM
[32] = molecular target: Phosphatidylinositol 4,5-bisphosphate 3-kinase catalytic subunit beta isoform (Homo sapiens) (UniProt P42338); conditions: Compound concentration 1000.0 nM
[33] = molecular target: Maternal embryonic leucine zipper kinase (Homo sapiens) (UniProt Q14680); conditions: Compound concentration 1000.0 nM
[34] = molecular target: Serine/threonine-protein kinase Nek4 (Homo sapiens) (UniProt P51957); conditions: Compound concentration 1000.0 nM
[35] = molecular target: Serine/threonine-protein kinase ULK3 (Homo sapiens) (UniProt Q6PHR2); conditions: Compound concentration 1000.0 nM
[36] = molecular target: Platelet-derived growth factor receptor alpha (Homo sapiens) (UniProt P16234); conditions: Compound concentration 1000.0 nM
[37] = molecular target: Calcium/calmodulin-dependent protein kinase type II subunit gamma (Homo sapiens) (UniProt Q13555); conditions: Compound concentration 1000.0 nM
[38] = system: Epidermal growth factor receptor (Homo sapiens), P00533 [L858R,T790M]; conditions: Compound concentration 1000.0 nM
[39] = molecular target: Cyclin-dependent kinase 11A (Homo sapiens) (UniProt Q9UQ88); conditions: Compound concentration 1000.0 nM
[40] = molecular target: NT-3 growth factor receptor (Homo sapiens) (UniProt Q16288); conditions: Compound concentration 1000.0 nM
[41] = molecular target: Muscarinic acetylcholine receptor M5 (Homo sapiens) (UniProt P08912); conditions: Compound concentration 10.0 uM
[42] = molecular target: Discoidin domain-containing receptor 2 (Homo sapiens) (UniProt Q16832); conditions: Compound concentration 1000.0 nM
[43] = molecular target: RAC-alpha serine/threonine-protein kinase (Homo sapiens) (UniProt P31749); conditions: Compound concentration 1000.0 nM
[44] = system: ALK tyrosine kinase receptor (Homo sapiens), Q9UM73 [L1196M]; conditions: Compound concentration 1000.0 nM
[45] = molecular target: BDNF/NT-3 growth factors receptor (Homo sapiens) (UniProt Q16620); conditions: Compound concentration 1000.0 nM

Vascular endothelial growth factor receptor 1 (Homo sapiens), sequence (P17948 whole entry): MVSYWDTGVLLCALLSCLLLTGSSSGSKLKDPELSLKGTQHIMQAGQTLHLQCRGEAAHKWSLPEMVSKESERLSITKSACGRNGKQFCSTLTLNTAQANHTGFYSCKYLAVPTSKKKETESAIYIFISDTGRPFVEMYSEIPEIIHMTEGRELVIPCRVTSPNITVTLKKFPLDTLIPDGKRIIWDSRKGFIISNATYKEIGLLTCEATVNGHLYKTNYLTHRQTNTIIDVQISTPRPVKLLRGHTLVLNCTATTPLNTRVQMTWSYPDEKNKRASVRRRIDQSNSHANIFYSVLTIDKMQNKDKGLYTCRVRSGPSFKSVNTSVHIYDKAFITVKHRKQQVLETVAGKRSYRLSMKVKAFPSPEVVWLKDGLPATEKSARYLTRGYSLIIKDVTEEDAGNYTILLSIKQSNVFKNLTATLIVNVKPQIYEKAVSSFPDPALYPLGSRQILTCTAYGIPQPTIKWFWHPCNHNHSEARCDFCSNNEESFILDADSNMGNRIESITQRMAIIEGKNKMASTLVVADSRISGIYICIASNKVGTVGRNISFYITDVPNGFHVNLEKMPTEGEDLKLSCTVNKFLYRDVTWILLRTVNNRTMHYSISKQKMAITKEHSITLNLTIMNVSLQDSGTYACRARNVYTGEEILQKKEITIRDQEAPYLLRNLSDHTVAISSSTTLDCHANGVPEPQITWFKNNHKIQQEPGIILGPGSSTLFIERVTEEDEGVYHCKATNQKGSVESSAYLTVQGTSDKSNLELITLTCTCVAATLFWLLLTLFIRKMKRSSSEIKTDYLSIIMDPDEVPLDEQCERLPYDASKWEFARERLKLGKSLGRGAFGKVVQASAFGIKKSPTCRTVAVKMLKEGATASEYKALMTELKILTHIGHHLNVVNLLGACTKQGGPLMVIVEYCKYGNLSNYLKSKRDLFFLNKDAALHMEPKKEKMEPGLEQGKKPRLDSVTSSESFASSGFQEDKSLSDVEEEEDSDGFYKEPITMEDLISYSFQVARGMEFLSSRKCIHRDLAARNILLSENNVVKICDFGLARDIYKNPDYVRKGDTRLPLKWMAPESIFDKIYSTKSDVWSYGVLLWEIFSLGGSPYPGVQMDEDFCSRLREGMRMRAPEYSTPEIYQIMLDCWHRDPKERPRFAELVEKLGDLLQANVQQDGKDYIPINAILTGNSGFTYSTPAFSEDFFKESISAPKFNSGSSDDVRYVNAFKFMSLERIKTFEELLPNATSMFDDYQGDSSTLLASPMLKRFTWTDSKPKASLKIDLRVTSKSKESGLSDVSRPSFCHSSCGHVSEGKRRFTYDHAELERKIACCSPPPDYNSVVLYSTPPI
Serine/threonine-protein kinase Chk1 (Homo sapiens), sequence (O14757 whole entry): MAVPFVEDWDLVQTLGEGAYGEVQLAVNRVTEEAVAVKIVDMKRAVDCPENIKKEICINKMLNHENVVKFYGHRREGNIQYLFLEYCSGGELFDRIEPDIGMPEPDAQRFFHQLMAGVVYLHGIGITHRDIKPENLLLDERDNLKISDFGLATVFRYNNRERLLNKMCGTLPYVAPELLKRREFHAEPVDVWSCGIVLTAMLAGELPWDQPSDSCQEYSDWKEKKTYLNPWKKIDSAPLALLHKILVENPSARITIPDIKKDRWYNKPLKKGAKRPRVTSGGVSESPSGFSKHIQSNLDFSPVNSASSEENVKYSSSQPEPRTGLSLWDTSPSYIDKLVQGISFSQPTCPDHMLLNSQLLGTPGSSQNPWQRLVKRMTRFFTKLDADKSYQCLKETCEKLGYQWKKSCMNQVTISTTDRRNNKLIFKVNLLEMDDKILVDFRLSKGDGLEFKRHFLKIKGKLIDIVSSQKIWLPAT
Ephrin type-B receptor 6 (Homo sapiens), sequence (O15197 whole entry): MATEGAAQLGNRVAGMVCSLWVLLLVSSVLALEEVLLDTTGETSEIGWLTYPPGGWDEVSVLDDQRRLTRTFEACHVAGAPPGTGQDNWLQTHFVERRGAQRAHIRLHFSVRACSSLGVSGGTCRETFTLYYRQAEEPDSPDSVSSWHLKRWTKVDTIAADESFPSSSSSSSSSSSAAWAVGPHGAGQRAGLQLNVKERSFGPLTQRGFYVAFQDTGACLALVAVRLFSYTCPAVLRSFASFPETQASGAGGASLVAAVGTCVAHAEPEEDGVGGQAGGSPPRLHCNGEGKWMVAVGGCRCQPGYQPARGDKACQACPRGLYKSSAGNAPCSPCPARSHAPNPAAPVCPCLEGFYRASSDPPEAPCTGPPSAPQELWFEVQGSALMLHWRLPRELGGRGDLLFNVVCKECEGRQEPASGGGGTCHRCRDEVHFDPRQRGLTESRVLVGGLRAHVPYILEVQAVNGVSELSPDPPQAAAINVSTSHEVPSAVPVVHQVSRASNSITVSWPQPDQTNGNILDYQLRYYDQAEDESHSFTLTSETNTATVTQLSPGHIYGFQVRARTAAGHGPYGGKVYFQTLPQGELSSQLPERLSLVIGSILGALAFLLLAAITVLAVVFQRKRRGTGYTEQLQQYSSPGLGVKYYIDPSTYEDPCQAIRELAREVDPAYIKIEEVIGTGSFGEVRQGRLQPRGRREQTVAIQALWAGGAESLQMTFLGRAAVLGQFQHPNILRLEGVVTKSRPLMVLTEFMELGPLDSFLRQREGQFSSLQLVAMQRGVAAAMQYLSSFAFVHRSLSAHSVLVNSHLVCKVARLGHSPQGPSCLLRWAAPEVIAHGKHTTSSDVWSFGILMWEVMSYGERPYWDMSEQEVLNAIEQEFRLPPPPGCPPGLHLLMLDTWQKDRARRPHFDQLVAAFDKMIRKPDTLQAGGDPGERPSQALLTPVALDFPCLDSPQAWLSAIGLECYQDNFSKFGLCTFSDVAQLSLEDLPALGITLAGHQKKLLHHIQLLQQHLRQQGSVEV
Serine/threonine-protein kinase TNNI3K (Homo sapiens), sequence (Q59H18 whole entry): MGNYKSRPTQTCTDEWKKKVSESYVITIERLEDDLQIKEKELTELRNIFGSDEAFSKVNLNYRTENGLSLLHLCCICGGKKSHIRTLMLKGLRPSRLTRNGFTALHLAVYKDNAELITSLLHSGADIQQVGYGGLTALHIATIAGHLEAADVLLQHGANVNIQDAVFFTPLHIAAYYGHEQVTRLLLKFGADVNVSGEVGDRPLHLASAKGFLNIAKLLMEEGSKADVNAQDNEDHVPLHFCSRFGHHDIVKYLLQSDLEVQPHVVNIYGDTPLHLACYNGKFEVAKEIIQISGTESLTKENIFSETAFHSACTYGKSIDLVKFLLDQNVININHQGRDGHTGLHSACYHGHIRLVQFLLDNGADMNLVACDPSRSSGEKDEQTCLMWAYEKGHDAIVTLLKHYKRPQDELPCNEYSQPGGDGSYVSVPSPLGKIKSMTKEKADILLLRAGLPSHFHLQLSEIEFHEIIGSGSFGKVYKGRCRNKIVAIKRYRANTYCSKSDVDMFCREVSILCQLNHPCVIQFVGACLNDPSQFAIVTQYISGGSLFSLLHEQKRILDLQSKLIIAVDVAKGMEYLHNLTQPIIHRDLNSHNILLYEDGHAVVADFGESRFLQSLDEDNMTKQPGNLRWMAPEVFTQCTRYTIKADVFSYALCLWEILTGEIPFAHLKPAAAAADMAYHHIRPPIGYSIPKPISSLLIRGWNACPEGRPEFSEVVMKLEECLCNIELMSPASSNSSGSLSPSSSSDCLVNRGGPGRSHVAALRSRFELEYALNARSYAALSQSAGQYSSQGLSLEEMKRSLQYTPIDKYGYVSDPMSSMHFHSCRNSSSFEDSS
Cyclin-dependent kinase 16 (Homo sapiens), sequence (Q00536 whole entry): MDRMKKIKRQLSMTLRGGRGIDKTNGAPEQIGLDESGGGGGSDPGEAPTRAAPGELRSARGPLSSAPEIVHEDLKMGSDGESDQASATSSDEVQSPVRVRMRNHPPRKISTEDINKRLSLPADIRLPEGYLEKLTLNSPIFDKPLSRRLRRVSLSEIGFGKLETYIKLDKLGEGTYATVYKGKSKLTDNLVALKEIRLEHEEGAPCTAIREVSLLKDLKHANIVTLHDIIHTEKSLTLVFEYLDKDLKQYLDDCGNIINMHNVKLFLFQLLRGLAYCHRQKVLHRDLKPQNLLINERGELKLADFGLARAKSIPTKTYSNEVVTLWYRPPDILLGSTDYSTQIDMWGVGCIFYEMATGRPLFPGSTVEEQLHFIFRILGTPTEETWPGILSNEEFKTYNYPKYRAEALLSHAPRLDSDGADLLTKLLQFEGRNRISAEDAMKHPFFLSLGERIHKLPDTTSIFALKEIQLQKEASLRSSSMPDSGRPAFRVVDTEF
Maternal embryonic leucine zipper kinase (Homo sapiens), sequence (Q14680 whole entry, looked up): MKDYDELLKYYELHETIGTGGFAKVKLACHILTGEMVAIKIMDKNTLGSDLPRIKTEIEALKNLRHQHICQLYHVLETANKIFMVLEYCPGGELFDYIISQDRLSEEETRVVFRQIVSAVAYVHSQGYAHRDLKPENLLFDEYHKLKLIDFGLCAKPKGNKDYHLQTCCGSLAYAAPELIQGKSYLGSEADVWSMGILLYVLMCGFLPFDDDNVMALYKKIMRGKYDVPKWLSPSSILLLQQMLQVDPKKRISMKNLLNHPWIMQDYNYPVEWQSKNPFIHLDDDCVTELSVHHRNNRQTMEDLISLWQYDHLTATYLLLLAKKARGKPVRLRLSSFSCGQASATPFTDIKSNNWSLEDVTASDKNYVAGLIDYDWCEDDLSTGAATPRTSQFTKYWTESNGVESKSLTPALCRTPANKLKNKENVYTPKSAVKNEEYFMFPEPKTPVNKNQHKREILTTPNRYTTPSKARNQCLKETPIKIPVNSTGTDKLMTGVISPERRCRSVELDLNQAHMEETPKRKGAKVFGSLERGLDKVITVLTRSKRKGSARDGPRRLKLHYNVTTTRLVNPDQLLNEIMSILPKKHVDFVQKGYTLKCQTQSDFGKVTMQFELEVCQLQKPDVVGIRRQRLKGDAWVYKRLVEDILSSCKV

Compound `CCS(=O)(=O)c1cc2cc(C[C@](O)(CC(C)(C)c3ccc(F)cc3C(N)=O)C(F)(F)F)[nH]c2cn1` has an inhibition [1] of -2.58%, a residual activity [2] of 100% and a residual activity [3] of 87%. For the same compound, the residual activity [4] was 95%, the residual activity [5] was 79% and the residual activity [6] was 87%. The residual activity [7] was 97%, the residual activity [8] was 96% and the residual activity [9] was 80%. For the same compound, the residual activity [10] was 100%, the residual activity [11] was 100% and the residual activity [12] was 100%. The residual activity [13] was 100%, the residual activity [14] was 80% and the residual activity [15] was 93%. The residual activity [16] was 100%, the residual activity [17] was 100% and the residual activity [18] was 100%. The residual activity [19] was 100%, the residual activity [20] was 98% and the residual activity [21] was 100%. It also gave a residual activity [22] of 100%, a residual activity [23] of 77% and a residual activity [24] of 83%. It also gave a residual activity [25] of 97%, a residual activity [26] of 99% and a residual activity [27] of 100%. It also gave a residual activity [28] of 81%, a residual activity [29] of 85% and a residual activity [30] of 100%. It also gave a residual activity [31] of 100%, a residual activity [32] of 98% and a residual activity [33] of 100%. The residual activity [34] was 85%, the residual activity [35] was 100% and the residual activity [36] was 82%. The residual activity [37] was 100%, the residual activity [38] was 83% and the residual activity [39] was 100%. The residual activity [40] was 94%, the inhibition [41] was 1.86% and the residual activity [42] was 88%. The residual activity [43] was 100%, the residual activity [44] was 87% and the residual activity [45] was 100%.
With `CCS(=O)(=O)c1cc2cc(C[C@@](O)(CC(C)(C)c3ccc(F)cc3C(N)=O)C(F)(F)F)[nH]c2cn1` the inhibition [1] was -3.88%, the residual activity [2] was 100% and the residual activity [3] was 0%. The residual activity [4] was 84%, the residual activity [5] was 81% and the residual activity [6] was 97%. It also gave a residual activity [7] of 100%, a residual activity [8] of 100% and a residual activity [9] of 84%. For the same compound, the residual activity [10] was 100%, the residual activity [11] was 87% and the residual activity [12] was 100%. It also gave a residual activity [13] of 100%, a residual activity [14] of 100% and a residual activity [15] of 100%. It also gave a residual activity [16] of 100%, a residual activity [17] of 78% and a residual activity [18] of 100%. It also gave a residual activity [19] of 100%, a residual activity [20] of 78% and a residual activity [21] of 83%. For the same compound, the residual activity [22] was 100%, the residual activity [23] was 100% and the residual activity [24] was 69%. For the same compound, the residual activity [25] was 100%, the residual activity [26] was 83% and the residual activity [27] was 67%. It also gave a residual activity [28] of 67%, a residual activity [29] of 86% and a residual activity [30] of 77%. It also gave a residual activity [31] of 80%, a residual activity [32] of 87% and a residual activity [33] of 100%. For the same compound, the residual activity [34] was 91%, the residual activity [35] was 98% and the residual activity [36] was 99%. The residual activity [37] was 77%, the residual activity [38] was 83% and the residual activity [39] was 100%. For the same compound, the residual activity [40] was 82%, the inhibition [41] was -0.62% and the residual activity [42] was 100%. The residual activity [43] was 86%, the residual activity [44] was 100% and the residual activity [45] was 84%.
